Source: ChEMBL document CHEMBL4304805, “Antibacterial activity of 2-amino-4-hydroxypyrimidine-5-carboxylates and binding to Burkholderia pseudomallei 2-C-methyl-d-erythritol-2,4-cyclodiphosphate synthase” (Bioorg Med Chem Lett, 2019)

How the values were obtained:
Type in all cases: functional
Conditions in all cases: read-out: DIZ
[1] = tested on: Burkholderia thailandensis; assay: Antibacterial activity against Burkholderia thailandensis at 0.5 mM by Kirby Bauer disk diffusion method
[2] = tested on: Pseudomonas aeruginosa; assay: Antibacterial activity against Pseudomonas aeruginosa at 0.5 mM by Kirby Bauer disk diffusion method
[3] = tested on: Bacillus cereus; assay: Antibacterial activity against Bacillus cereus at 0.5 mM by Kirby Bauer disk diffusion method
[4] = tested on: Escherichia coli; assay: Antibacterial activity against Escherichia coli at 0.5 mM by Kirby Bauer disk diffusion method
[5] = tested on: Mycolicibacterium smegmatis; assay: Antibacterial activity against Mycobacterium smegmatis at 0.5 mM by Kirby Bauer disk diffusion method
[6] = tested on: Klebsiella pneumoniae; assay: Antibacterial activity against Klebsiella pneumoniae at 0.5 mM by Kirby Bauer disk diffusion method
[7] = tested on: Corynebacterium xerosis; assay: Antibacterial activity against Corynebacterium xerosis at 0.5 mM by Kirby Bauer disk diffusion method
[8] = tested on: Corynebacterium pseudodiphtheriticum; assay: Antibacterial activity against Corynebacterium pseudodiphtheriticum at 0.5 mM by Kirby Bauer disk diffusion method
[9] = tested on: Micrococcus luteus; assay: Antibacterial activity against Micrococcus luteus at 0.5 mM by Kirby Bauer disk diffusion method

Structure (SMILES)	zone of inhibition at 500 µM [1]	zone of inhibition at 500 µM [2]	zone of inhibition at 500 µM [3]	zone of inhibition at 500 µM [4]	zone of inhibition at 500 µM [5]	zone of inhibition at 500 µM [6]	zone of inhibition at 500 µM [7]	zone of inhibition at 500 µM [8]	zone of inhibition at 500 µM [9]
CCOC(=O)c1cnc(NCCc2ccc(Cl)cc2Cl)nc1O	11 mm	0 mm	0 mm	0 mm	0 mm	0 mm	0 mm	0 mm	0 mm
Nc1ccc(C(=O)O)c(O)c1 [AMINOSALICYLIC ACID]	12 mm	0 mm	9 mm	11 mm	14 mm	0 mm	0 mm	0 mm	0 mm
CCOC(=O)c1cnc(Nc2ccc3cn[nH]c3c2)nc1O	11 mm	12 mm	10 mm	7 mm	17 mm	12 mm	7 mm	0 mm	0 mm
CCOC(=O)c1cnc(Nc2ccc3[nH]ncc3c2)nc1O	8 mm	10 mm	10 mm	0 mm	10 mm	0 mm	0 mm	0 mm	0 mm
CCOC(=O)c1cnc(NCc2ccc(F)cc2)nc1O	8 mm	0 mm	19 mm	0 mm	0 mm	0 mm	0 mm	0 mm	0 mm
CCOC(=O)c1cnc(Nc2ccc(N3CCOCC3)cc2)nc1O	9 mm	11 mm	6 mm	0 mm	14 mm	8 mm	0 mm	0 mm	0 mm
O=C(O)c1cnc(Nc2ccccc2)nc1O	0 mm	0 mm	0 mm	0 mm	15 mm	0 mm	0 mm	0 mm	0 mm
CCOC(=O)c1cnc(NCCc2ccc(Cl)c(Cl)c2)nc1O	0 mm	0 mm	10 mm	0 mm	0 mm	0 mm	0 mm	0 mm	0 mm
CCOC(=O)c1cnc(NCc2ccc(Cl)c(Cl)c2)nc1O	0 mm	0 mm	12 mm	0 mm	0 mm	0 mm	0 mm	0 mm	0 mm
O=C(O)c1cnc(NCc2ccc(Cl)cc2)nc1O	11 mm	15 mm	14 mm	14 mm	15 mm	9 mm	0 mm	0 mm	0 mm
O=C(O)c1cnc(NCc2cc(Cl)ccc2Cl)nc1O	10 mm	9 mm	10 mm	11 mm	15 mm	8 mm	0 mm	10 mm	0 mm
CCOC(=O)c1cnc(NCC2CCCO2)nc1O (centres undefined)	11 mm	0 mm	0 mm	0 mm	15 mm	0 mm	0 mm	0 mm	0 mm
CCOC(=O)c1cnc(NCCc2ccc(Cl)cc2)nc1O	0 mm	0 mm	7 mm						
O=C(O)c1cnc(NCCc2ccccn2)nc1O	10 mm	17 mm	7 mm	0 mm	17 mm	7 mm	0 mm	0 mm	15 mm
CCOC(=O)c1cnc(Nc2ccc(CC(=O)O)cc2)nc1O	8 mm	0 mm	11 mm	10 mm	0 mm	9 mm	0 mm	0 mm	0 mm
CCOC(=O)c1cnc(NCCc2ccccn2)nc1O	0 mm	0 mm	8 mm						

Structure (SMILES)	zone of inhibition at 500 µM [1]	zone of inhibition at 500 µM [2]	zone of inhibition at 500 µM [3]	zone of inhibition at 500 µM [4]	zone of inhibition at 500 µM [5]	zone of inhibition at 500 µM [6]	zone of inhibition at 500 µM [7]	zone of inhibition at 500 µM [8]	zone of inhibition at 500 µM [9]
O=C(O)c1cnc(NCc2ccc(F)cc2)nc1O	12 mm	0 mm	12 mm	0 mm	0 mm	0 mm	0 mm	0 mm	0 mm
CCOC(=O)c1cnc(NCc2ccc(Cl)nc2)nc1O	9 mm	0 mm	10 mm						
O=C(O)c1cnc(NCc2ccc(Cl)nc2)nc1O	12 mm	10 mm							
O=C(O)c1cnc(Nc2ccc3[nH]ncc3c2)nc1O	10 mm	0 mm	7 mm	0 mm	14 mm	0 mm	0 mm	0 mm	0 mm
O=C(O)c1cnc(NCCc2ccncc2)nc1O	10 mm	0 mm							
CCOC(=O)c1cnc(Nc2ccc(-c3ccccc3)cc2)nc1O	0 mm	0 mm	11 mm	0 mm	0 mm	0 mm	0 mm	0 mm	0 mm
CCOC(=O)c1cnc(NCCc2ccncc2)nc1O	4 mm	0 mm	8 mm						
O=C(O)c1cnc(Nc2ccc(Br)cc2)nc1O	13 mm	0 mm	12 mm	15 mm	17 mm	12 mm	16 mm	16 mm	0 mm
O=C(O)c1cnc(NCCc2ccc(Cl)cc2)nc1O	12 mm	19 mm		0 mm	14 mm	0 mm	0 mm	0 mm	0 mm
CCOC(=O)c1cnc(NCCc2ccc(F)cc2)nc1O	9 mm	11 mm	11 mm	0 mm	14 mm	0 mm	0 mm	0 mm	0 mm
CCOC(=O)c1cnc(NCCc2cccc(F)c2)nc1O	0 mm	0 mm	0 mm	0 mm	0 mm	0 mm	0 mm	0 mm	0 mm
CCOC(=O)c1cnc(Nc2cccc(-c3ccccc3)c2)nc1O	0 mm	0 mm	15 mm	0 mm	15 mm	0 mm	0 mm	0 mm	0 mm
O=C(O)c1cnc(Nc2ccc(-c3ccccc3)cc2)nc1O	0 mm	0 mm	12 mm	0 mm	15 mm	15 mm	0 mm	0 mm	0 mm
CCOC(=O)c1cnc(Nc2ccc(N3CCCCC3)cc2)nc1O	14 mm	13 mm	15 mm	19 mm	16 mm	13 mm	0 mm	0 mm	0 mm
CCOC(=O)c1cnc(Nc2ccc(I)cc2)nc1O	0 mm	0 mm	13 mm						
